Experiments:
[1] = Dose tolerance studies / MTD in mice; settings: NOD/SCID, mouse, in vivo, po
Description: NOD/SCID mice were administered FV-162 (30 mg/kg daily, 7 days/week) in a 5% DMSO, 20% Cremophor vehicle by oral gavage or ONX-0912 (30 mg/kg daily, 7 days/week) in a 5% DMSO, 20% Cremophor vehicle by oral gavage for a week. Mice were monitored for changes in body weight, behavior, and physical appearance.

[2] = system: MM.1S human myeloma cells; test: Subcutaneous MM.1S myeloma xenograft model; assay type: in vivo, NOD/SCID mice; settings: for tumor burden compared with vehicle control: P<0.01 by day 24, P<0.001 after 27 days
Description: Human MM.1S myeloma cells (5 × 10^6) were injected subcutaneously into 6–8-week-old female NOD/SCID mice (10 mice per group). When tumors were palpable, mice were administered vehicle by oral gavage (5% DMSO, 20% Cremophor; once daily × 3 weeks), carfilzomib intravenously (5 mg/kg, once daily on days 1 and 2 of each week × 3 weeks), ONX-0912 by oral gavage (30 mg/kg, once daily on days 1 and 2 of each week × 3 weeks), or FV-162 by oral gavage (30 mg/kg or 100 mg/kg, once daily × 3 weeks). Over time, tumor volume (tumor length × width^2 × 0.5236) was measured with calipers (Control Company, Friendswood, TX, USA), and mouse body weight was monitored.

[3] = system: primary CD138+ myeloma cells; test: Annexin V flow cytometry viability of primary bone marrow mononuclear cells, myeloma fraction; assay type: cell-based, human
Description: Human multiple myeloma cell lines 8226, H929, JJN3, KMH11, KMS11, KMS18, LP1, MM.1 S, OPM2, and U266 were grown in Iscove's modified Dulbecco's medium (IMDM). Cell lines were authenticated with short tandem repeat method in September 2011. In addition, cell lines were continually monitored by morphological inspection. Primary mononuclear cells were isolated from peripheral blood or bone marrow samples from multiple myeloma patients at the Princess Margaret Cancer Centre (Toronto, ON, Canada) by Ficoll density gradient centrifugation and cultured in IMDM. All cell culture media were obtained from the Ontario Cancer Institute Tissue Culture Media Facility (Toronto, ON, Canada) and were supplemented with 10% fetal calf serum, 100 μg/ml penicillin, and 100 μg/ml streptomycin (Hyclone, Logan, UT, USA). […]
Cellular viability was primarily assessed by MTS assay according to the manufacturer's instructions (Promega, Madison, WI, USA). […] Cell viability was independently confirmed by reading the optical density at 490 nm and by exclusion of trypan blue stain (Invitrogen, Burlington, ON, Canada). Viability of primary mononuclear cells was determined by Annexin V–fluorescein isothiocyanate and propidium iodide co-staining (Biovision Research Products, Mountain View, CA, USA) using flow cytometry according to the manufacturer's instructions after 48 h of treatment with inhibitors or vehicle control.

[4] = Pharmacokinetic study in NOD/SCID mice; assay type: in vivo; settings: plasma, mouse; for bioavailability: 25 mg/kg p.o. vs 5 mg/kg i.v.
Description: NOD/SCID mice were administered FV-162 or ONX-0912 at doses of 5 mg/kg intravenously or 25 mg/kg by oral gavage in a 12.5% ethanol, 12.5% Tween-80 vehicle (3 mice per group). Venous blood samples (20–50 μl) were collected at 5, 15, 30 min, and 1, 2, and 4 h postdose. Plasma was separated from whole blood by centrifugation and stored at −20 °C until analysis. […] Venous blood samples (20–50 μl) were collected at 5, 10, 30, and 60 min postdose. Plasma was separated from whole blood by centrifugation and stored at −20 °C until analysis. The Cmax, its associated time (Tmax), the terminal half-life (t1/2), area under the plasma concentration–time curve (AUC), clearance (CL), and volume of distribution (Vd) were evaluated using Pheonix WinNonlin 6.2.1 (Princeton, NJ, USA), and relative oral bioavailability (F%) values were calculated as follows: F%=AUCoral gavage/AUCintravenous × 100.

[5] = Pharmacokinetic study in Sprague-Dawley rats; assay type: in vivo; settings: rat; for bioavailability: 40 mg/kg p.o. vs 5 mg/kg i.v.
[6] = system: CD138- normal hematopoietic cells; test: Annexin V flow cytometry viability of primary bone marrow mononuclear cells, normal fraction; assay type: cell-based, human; settings: 48 h; for sensitivity of CD138- normal hematopoietic cells: concentrations ⩽0.1 μM for FV-162, similar concentrations for ONX-0912
Description: Human multiple myeloma cell lines 8226, H929, JJN3, KMH11, KMS11, KMS18, LP1, MM.1 S, OPM2, and U266 were grown in Iscove's modified Dulbecco's medium (IMDM). Cell lines were authenticated with short tandem repeat method in September 2011. In addition, cell lines were continually monitored by morphological inspection. Primary mononuclear cells were isolated from peripheral blood or bone marrow samples from multiple myeloma patients at the Princess Margaret Cancer Centre (Toronto, ON, Canada) by Ficoll density gradient centrifugation and cultured in IMDM. All cell culture media were obtained from the Ontario Cancer Institute Tissue Culture Media Facility (Toronto, ON, Canada) and were supplemented with 10% fetal calf serum, 100 μg/ml penicillin, and 100 μg/ml streptomycin (Hyclone, Logan, UT, USA). […] Cellular viability was primarily assessed by MTS assay according to the manufacturer's instructions (Promega, Madison, WI, USA). Ten thousand cells per well were seeded in triplicate in tissue culture-treated 96-well plates. Two hours after seeding, cells were treated with proteasome inhibitors for 72 h (0.01–10 μM) or DMSO vehicle control. Cell viability was independently confirmed by reading the optical density at 490 nm and by exclusion of trypan blue stain (Invitrogen, Burlington, ON, Canada). Viability of primary mononuclear cells was determined by Annexin V–fluorescein isothiocyanate and propidium iodide co-staining (Biovision Research Products, Mountain View, CA, USA) using flow cytometry according to the manufacturer's instructions after 48 h of treatment with inhibitors or vehicle control.

[7] = male, Sprague-Dawley, plasma, iv, 5 mg/kg i.v.
[8] = male, Sprague-Dawley, plasma, iv, 5 mg/kg i.v., read-out: AUC (converted)
[9] = male, Sprague-Dawley, plasma, iv, 5 mg/kg i.v., read-out: Cmax
[10] = male, Sprague-Dawley, plasma, po, 40 mg/kg p.o.
[11] = male, Sprague-Dawley, plasma, po
[12] = male, Sprague-Dawley, plasma, 40 mg/kg oral, read-out: AUC (as printed in text) (converted)
[13] = male, Sprague-Dawley, plasma, 40 mg/kg oral, read-out: Cmax (as printed in text)

Cc1ncc(C(=O)N[C@@H](COC(F)F)C(=O)N[C@@H](COC(F)F)C(=O)N[C@@H](Cc2ccccc2)C(=O)[C@@]2(C)CO2)s1 [FV-162]
MTD [1]: 200 mg/kg | tumor burden compared with vehicle control ([2]; 30 mg/kg daily by oral gavage): significantly reduced tumor burden | tumor burden compared with vehicle control ([2]; 100 mg/kg daily by oral gavage): significantly reduced tumor burden | tumor growth reduction compared with ONX-0912 (30 mg/kg) ([2]; 100 mg/kg daily, by 27 days after inoculation, P<0.05): greater reduction in tumor growth | primary myeloma cells killed ([3]; concentrations ⩽0.1 μM, 48 h, n=8 patients): At least 80% | AUC ([4]; iv, 5 mg/kg i.v.): 111 ng·h/mL | Cmax ([4]; iv, 5 mg/kg i.v.): 268 ng/mL | Tmax ([4]; iv, 5 mg/kg i.v.): 5 min | Vd ([4]; iv, 5 mg/kg i.v.): 96 L/kg | clearance ([4]; iv, 5 mg/kg i.v.): 702 mL/min/kg | half-life ([4]; iv, 5 mg/kg i.v.): 95 min | AUC ([4]; po, 25 mg/kg p.o.): 51.9 ng·h/mL | Cmax ([4]; po, 25 mg/kg p.o.): 21 ng/mL | Tmax ([4]; po, 25 mg/kg p.o.): 60 min | bioavailability ([4]; po): 10% | Tmax [5, 7]: 5 min | Vd [5, 7]: 20 L/kg | half-life [5, 7]: 68 min | AUC [5, 8]: 403 ng·h/mL | Cmax [5, 9]: 392 ng/mL | Tmax [5, 10]: 15 min | bioavailability [5, 11]: 14% | AUC [5, 12]: 451 ng·h/mL | Cmax [5, 13]: 615 ng/mL | AUC ([5]; 40 mg/kg p.o.): 27 073 min × ng/ml | CD138- cells to which compound was toxic ([6]; 0.5 μM): 50% | sensitivity of CD138- normal hematopoietic cells [6]: largely insensitive

COC[C@H](NC(=O)c1cnc(C)s1)C(=O)N[C@@H](COC)C(=O)N[C@@H](Cc1ccccc1)C(=O)[C@@]1(C)CO1 [ONX-0912, reference compound]
MTD [1]: 40 mg/kg | tumor burden compared with vehicle control ([2]; 30 mg/kg twice weekly by oral gavage): significantly reduced tumor burden | induction of death in primary myeloma cells ([3]; similar concentrations as FV-162, 48 h): less effective at inducing death in primary myeloma cells | AUC ([4]; iv, 5 mg/kg i.v.): 54.1 ng·h/mL | Cmax ([4]; iv, 5 mg/kg i.v.): 187 ng/mL | Tmax ([4]; iv, 5 mg/kg i.v.): 5 min | Vd ([4]; iv, 5 mg/kg i.v.): 48 L/kg | clearance ([4]; iv, 5 mg/kg i.v.): 1490 mL/min/kg | half-life ([4]; iv, 5 mg/kg i.v.): 22 min | AUC ([4]; po, 25 mg/kg p.o.): 8.55 ng·h/mL | Cmax ([4]; po, 25 mg/kg p.o.): 38 ng/mL | Tmax ([4]; po, 25 mg/kg p.o.): 5 min | bioavailability ([4]; po): 3% | Tmax [5, 7]: 5 min | Vd [5, 7]: 4 L/kg | clearance [5, 7]: 273 mL/min/kg | half-life [5, 7]: 10 min | AUC [5, 8]: 301 ng·h/mL | Cmax [5, 9]: 1090 ng/mL | Tmax [5, 10]: 5 min | bioavailability [5, 11]: 16% | AUC [5, 12]: 377 ng·h/mL | Cmax [5, 13]: 1270 ng/mL | AUC ([5]; 40 mg/kg p.o.): 22 627 min × ng/ml | sensitivity of CD138- normal hematopoietic cells [6]: no adverse effects

Reference: publication PMC4650734, “FV-162 is a novel, orally bioavailable, irreversible proteasome inhibitor with improved pharmacokinetics displaying preclinical efficacy with continuous daily dosing” (Cell Death & Disease, 2015)
